EP0133934A2, “Pharmacologically active 1,3,4-thiadiazol-(3,2-a)-thieno-(2,3-d)-pyrimidin-5-(H)one derivatives” (NIKEPHARMA S.r.l., priority 1983, dated 1985)
Read-outs that look alike come from different tables or passages of the source.

Columns and labels:
acetic acid peritonitis = experiment: Anti-exudative activity: acetic acid peritonitis in the rat; format: in vivo; details: for PERITONEAL EXUDATE ml ± E.S.: controls 2.91 ± 0.12; for anti-exudative activity: oral dose of 10 mg/kg, result in words; for EXUDATE VOLUME ml ± E.S.: controls 2.58 ± 0.18
Procedure: The test was carried out according to the procedure described by Arrigoni-Martelli (Boll.Chim. Far. 107, 29, 1968). This method is based upon the evaluation of the anti-exudative effect of a drug at the peritoneal level, following a intraperitoneal injection of 10 ml/kg of a 0.5% acetic acid solution.
The compounds under test were administered oral ly one hour before the inflammatory agent; 30 minutes after the treatment the animals were killed and the fluid from the peritoneal cavity was drawn and measured.
The test compounds were administered by oral route 1 hour before intraperitoneal injection of acetic acid (10 ml/kg of a 0.5% solution).
The anti-exudative activity was determined on the basis of the peritoneal exudate of the treated animals, in comparison with the controls.

carrageenin oedema = experiment: Antiinflammatory activity: carrageenin oedema in the rat; format: in vivo; details: po, 4 h, read-out: OEDEMA INHIBITION % at the fourth hour
Procedure: (§1) The activity tests were carried out on male Spra gue-Dawley rats weighing 200+20 g and on male Swiss mice weighing 26+3 g.
(§2) The test compounds were administered orally by means of gastroesophageal tube, in the form of a suspen sion in a 10 ml/kg mucilage of 5% gum arabic; and intraperitoneally in the form of an aqueous suspen sion added with a few drops of Tween 80, in the con stant volume of 10 ml/kg.
The compounds under test and the control ones were administered orally one hour before the injection of 0.1 ml of 1% carrageenin in the right paw of the animals.
The volume of the paw was measured by means of a plethysmograph immediately before the injection and 2, 4 and 6 hours after.
The results were expressed as percentage inhibi tion of the oedema in the treated animals in comparison with the control animals, at the time of the maximum oedema development (fourth hour after the carrageenin injection).

[1] = test system: Writhing test induced by phenyl-benzoquinone; experiment: Phenylbenzoquinone writhing test in the rat; format: in vivo
Procedure: as §1, §2

gastric ulceration = format: in vivo, rat; details: os; for ULCERA-TION DEGREE: scale 0 to 4
Procedure: To rats fasted for 18 hours, with water ad libitum, were administered the compounds under test at "0" time and after 2 hours. Control rats were treated with established anti-inflammatory agents.
6 Hours after the beginning of the test, the animals were killed by ether inhalation.
Gastric ulceration was assessed on the ground of values ranging from 0 to 4: • 0 = no ulceration; • 1 = slight iperhaemia and/or a few ulcers; • 2 = severe iperhaemia and many punctiform ulcers; • 3 = severe submucosal hemorrage, one large ulcer and many punctiform ulcers; • 4 severe submucosal hemorrage and many large ulcers.
The ulcerogenic index was measured by the following formula (Lwoff. J.M., J. Pharmacol., 2, 81, 1971): [formula]

[2] = test system: phenylbenzoquinone writhing test; experiment: Phenylbenzoquinone writhing test in the mouse (ED50 and duration of effect); format: in vivo; details: for % INHI-BITION / N° OF WRITHES IN 10' ml ± E.S.: Table 6, oral, one hour before the test; for N° OF WRITHES IN 10' ml ± E.S.: controls 52.4 ± 1.69; for % INHIBITION / Nº OF WRITHES IN 10' ml ± E.S.: Table 7, oral 1 mg/kg; for Nº OF WRITHES IN 10' ml ± E.S.: controls 53.2 ± 1.26
Procedure: The analgesic effect was determined by the number of writhes of the abdomen recorded during 10 minutes (from 5 to 15 minutes after the phenylbenzo quinone injection).

Carrageenin pleuritis = Carrageenin pleuritis in the rat; format: in vivo; details: for EXUDATE VOLUME: 30 min. before carrageenin and 6 hours after, exudate at 18 hours, controls 2.76 ± 0.38
Procedure: Compound HA-34 was tested for the protective activity against the exudative pleuritis reaction induced by carrageenin. HA-34 was administered 30 min. before the injection of carrageenin, and 6 hours after it. The experiment was carried out on male Spra- gue-Dawley rats, anestethized with ethyl urethane, which were subjected, in their right pleural cavity, to injection of 1.5 ml of air and then 0.1 ml of a 1% carrageenin solution, in sterile normal saline, according to the procedure by Van Armann et al. (J. Pharmac. Exp. Ther., 150, 328, 1965). Indometha cin and Piroxicam were employed as the control drugs, under the same conditions. 18 Hours after the intrapleuric carrageenin injec tion, the animals were killed by means of ether inhalation, and the pleuric exudate was collected and measured.

[3] = Rattus norvegicus, po, Table 4, os, 10 mg/kg
[4] = os, 100 mg/kg, one hour before carrageenin
[5] = Rattus norvegicus, po, 10 min, os, read-out: % INHIBI-TION
[6] = 400 mg/kg, at 0 time and after 2 hours, killed at 6 hours
[7] = 30 min. before phenylbenzoquinone

## Cc1nn2c(=O)c3c4c(sc3nc2s1)CCC4 [HA 30]
Acetic acid peritonitis; [3]
  inhibition in vivo at 10 mg/kg: 14%
Acetic acid peritonitis; Table 4, os, 10 mg/kg
  PERITONEAL EXUDATE ml ± E.S.: 2.50 ± 0.10 mL
Acetic acid peritonitis
  anti-exudative activity: did not display valuable anti-exudat- ing properties
Carrageenin oedema; [4]
  inhibition in vivo at 100 mg/kg: 35.6 ± 0.74%
[1]; [5]
  inhibition in vivo at 0.5 mg/kg: 15%
  inhibition in vivo at 5 mg/kg: 36%
[1]; oral doses of 5 and 0.5 mg/kg, result in words
  analgesic action: substan tially comparable to the reference compound

## O=c1c2c3c(sc2nc2sc(-c4ccccc4)nn12)CCCC3 [HA 33]
Acetic acid peritonitis; [3]
  inhibition in vivo at 10 mg/kg: 68%
Acetic acid peritonitis; Table 4, os, 10 mg/kg
  PERITONEAL EXUDATE ml ± E.S.: 1.04 ± 0.16 mL
Gastric ulceration; 400 mg/kg
  ULCERA-TION INDEX: 0
  ULCERA-TION DEGREE: 0
Gastric ulceration; [6]
  % ANIMALS WITH ULCERS: 0%
Carrageenin oedema; [4]
  inhibition in vivo at 100 mg/kg: 39.6 ± 0.76%
[1]; [5]
  inhibition in vivo at 0.5 mg/kg: 27%
  inhibition in vivo at 5 mg/kg: 70%

## Cc1cccc(Nc2ccccc2C(=O)O)c1C [MFA, mephenamic acid]
Acetic acid peritonitis; [3]
  inhibition in vivo at 10 mg/kg: 6%
Acetic acid peritonitis; Table 4, os, 10 mg/kg
  PERITONEAL EXUDATE ml ± E.S.: 2.60 ± 0.15 mL
Acetic acid peritonitis
  anti-exudative activity: did not display valuable anti-exudat- ing properties
Gastric ulceration; 200 mg/kg
  % ANIMALS WITH ULCERS: 50%
  ULCERA-TION INDEX: 50
  ULCERA-TION DEGREE: 1.0
Carrageenin oedema; [4]
  inhibition in vivo at 100 mg/kg: 49.2 ± 0.86%
[1]; [5]
  inhibition in vivo at 5 mg/kg: 24%
[1]; Rattus norvegicus, po, 10 min, os, 10 mg/kg, read-out: % INHIBI-TION
  inhibition in vivo at 10 mg/kg: 33%

## CN1C(C(=O)Nc2ccccn2)=C(O)c2ccccc2S1(=O)=O [PIROXICAM, Piroxicam]
[2]; Mus musculus, 1 h, oral administration one hour before the test, read-out: ED50
  ED50: 1.2 mg/kg
[2]; 0.1 mg/kg
  % INHI-BITION: 11.8%
[2]; 0.5 mg/kg
  % INHI-BITION: 28.4%
  N° OF WRITHES IN 10' ml ± E.S.: 37.5 ± 1.26
[2]; 1 mg/kg
  % INHI-BITION: 54.8%
  N° OF WRITHES IN 10' ml ± E.S.: 23.7 ± 2.18
[2]; 2 mg/kg
  % INHI-BITION: 61.8%
[2]; 5 mg/kg
  % INHI-BITION: 82.2%
  N° OF WRITHES IN 10' ml ± E.S.: 9.3 ± 1.44
[2]; [7]
  % INHIBITION: 54.5%
  Nº OF WRITHES IN 10' ml ± E.S.: 24.2 ± 1.62
[2]; 1 h before phenylbenzoquinone
  % INHIBITION: 57.3%
  Nº OF WRITHES IN 10' ml ± E.S.: 22.7 ± 2.18
[2]; 3 h before phenylbenzoquinone
  % INHIBITION: 67.6%
[2]; 4 h before phenylbenzoquinone
  % INHIBITION: 63.3%
[2]; 6 h before phenylbenzoquinone
  % INHIBITION: 65.0%
[2]; 8 h before phenylbenzoquinone
  % INHIBITION: 60.1%
  Nº OF WRITHES IN 10' ml ± E.S.: 21.2 ± 0.72
[2]; 24 h before phenylbenzoquinone
  % INHIBITION: 57.5%
  Nº OF WRITHES IN 10' ml ± E.S.: 22.6 ± 1.37
[2]; 32 h before phenylbenzoquinone
  % INHIBITION: 12.0%
Carrageenin pleuritis; 5 mg/kg
  % INHIBITION: 39.5%
  EXUDATE VOLUME: 1.67 ± 0.33
Carrageenin pleuritis; 10 mg/kg
  % INHIBITION: 64.1%
  EXUDATE VOLUME: 0.99 ± 0.40
Acetic acid peritonitis; Rattus norvegicus, po, Table 8, oral, 0.1 mg/kg
  inhibition in vivo at 0.1 mg/kg: 24.6%
Acetic acid peritonitis; Rattus norvegicus, po, Table 8, oral, 1 mg/kg
  inhibition in vivo at 1 mg/kg: 51.2%
Acetic acid peritonitis; Rattus norvegicus, po, Table 8, oral, 10 mg/kg
  inhibition in vivo at 10 mg/kg: 80%
Acetic acid peritonitis; Rattus norvegicus, po, Table 8, oral, 20 mg/kg
  inhibition in vivo at 20 mg/kg: 95.2%
Acetic acid peritonitis; Rattus norvegicus, oral administration 1 hour before i.p. acetic acid
  ED50: 0.7 mg/kg
Acetic acid peritonitis; Table 8, oral, 0.1 mg/kg, 1 hour before acetic acid
  EXUDATE VOLUME ml ± E.S.: 1.94 ± 0.08 mL
Acetic acid peritonitis; Table 8, oral, 0.5 mg/kg
  EXUDATE VOLUME ml ± E.S.: 1.37 ± 0.07 mL
Acetic acid peritonitis; Table 8, oral, 1 mg/kg
  EXUDATE VOLUME ml ± E.S.: 1.26 ± 0.06 mL
Acetic acid peritonitis; Table 8, oral, 10 mg/kg
  EXUDATE VOLUME ml ± E.S.: 0.49 ± 0.04 mL
Acetic acid peritonitis; Table 8, oral, 20 mg/kg
  EXUDATE VOLUME ml ± E.S.: 0.12 ± 0.06 mL

## CCc1nn2c(=O)c3c4c(sc3nc2s1)CCCC4 [HA 32]
Acetic acid peritonitis; [3]
  inhibition in vivo at 10 mg/kg: 74%
Acetic acid peritonitis; Table 4, os, 10 mg/kg
  PERITONEAL EXUDATE ml ± E.S.: 0.93 ± 0.14 mL
Gastric ulceration; 400 mg/kg
  ULCERA-TION INDEX: 0
  ULCERA-TION DEGREE: 0
Gastric ulceration; [6]
  % ANIMALS WITH ULCERS: 0%
Carrageenin oedema; [4]
  inhibition in vivo at 100 mg/kg: 49.6 ± 0.82%
[1]; [5]
  inhibition in vivo at 0.5 mg/kg: 48%
  inhibition in vivo at 5 mg/kg: 76%

## CC(=O)Oc1ccccc1C(=O)O [ASA, Acetylsali cylic acid]
Acetic acid peritonitis; Table 4, os, 20 mg/kg
  PERITONEAL EXUDATE ml ± E.S.: 2.76 ± 0.13 mL
Acetic acid peritonitis
  anti-exudative activity: did not display valuable anti-exudat- ing properties
Gastric ulceration; 200 mg/kg
  % ANIMALS WITH ULCERS: 78%
  ULCERA-TION INDEX: 112
  ULCERA-TION DEGREE: 1.5
Carrageenin oedema
  inhibition in vivo at 100 mg/kg: 31.4 ± 0.37%
[1]; Rattus norvegicus, po, 10 min, read-out: % INHIBI-TION
  inhibition in vivo at 50 mg/kg: 40%

## CCOc1ccccc1-c1nn2c(=O)c3c4c(sc3nc2s1)CCCC4 [HA 36]
Acetic acid peritonitis; [3]
  inhibition in vivo at 10 mg/kg: 49%
Acetic acid peritonitis; Table 4, os, 10 mg/kg
  PERITONEAL EXUDATE ml ± E.S.: 1.48 ± 0.10 mL
Gastric ulceration; 400 mg/kg
  ULCERA-TION INDEX: 0
  ULCERA-TION DEGREE: 0
Gastric ulceration; [6]
  % ANIMALS WITH ULCERS: 0%
Carrageenin oedema; [4]
  inhibition in vivo at 100 mg/kg: 52.7 ± 0.61%
[1]; [5]
  inhibition in vivo at 0.5 mg/kg: 22%
  inhibition in vivo at 5 mg/kg: 60%
